Laboratory results reported in patent US4801579A, “Novel cystine compounds, their preparation and use” (Bleiberger Bergwerks Union, priority 1986, dated 1989).
Positions of bridges follow the written chain, without caps; N, C: chain ends. Residues, ends and D or L forms follow the SMILES beside them. Chains are numbered I, II in the order given.

Experiments:
[1] = heat treatment (sterilization) of solutions; cited from earlier work
[2] = water solubility of the novel cystine compounds; type: physicochemical
Description: (§1) 0.5 g bis-(acetylglycyl)-L,L-cystine are dissolved in 50 ml distilled water. The pH is adjusted to 6.5 by the addition of a 1N sodium hydrogen carbonate solution and then diluted with distilled water to a volume of 100 ml. Of this solution, an HPLC chromatogram is made immediately. The solution is then heated on a boiling water bath.

[3] = heat sterilization stability of the novel cystine compounds; type: physicochemical; conditions: for instance heating to 120° C. for 5 minutes
Description: So, for instance, infusion solutions are prepared by dissolving the purified peptide and the desired amino acid in distilled water. Mineral salts and other substances may further be added to these solutions. Prior to administration, they must be isotonically adjusted. Up to now, it has not been possible to sterilize such solutions in the usual manner (5 minutes, 120° C., pH 5.5 to 7.5) without the decomposition of the cystine-containing component. The novel peptides according to the invention permit a heat treatment of the above-mentioned infusion solution without the decomposition of the cystine derivative.

[4] = Testing of the water solubility and thermal stability of bis-(acetylglycyl)-L,L-cystine (HPLC after heating on boiling water bath); type: physicochemical; conditions: 0.5 g in 100 ml water, pH 6.5, boiling water bath, after 10, 20 and 30 minutes of heating
Description: as §1

Row | SMILES | resistance to heat treatment / thermal stability [1] | solubility in water [2] | stability to heat sterilization [3] | change of HPLC chromatogram after heating [4]
1 | N[C@@H](CSSC[C@H](N)C(=O)O)C(=O)O [L,L-cystine] | stable against heat treatment | – | – | –
2 | CC(=O)NCC(=O)N[C@@H](CSSC[C@H](NC(=O)CNC(C)=O)C(=O)O)C(=O)O [bis-(acetylglycyl)-L,L-cystine] (I: Ac-Gly-Cys-OH / II: Ac-Gly-Cys-OH; disulfide I:2-II:2) | – | well soluble in water | stable enough to be heat-sterilizable | does not show any essential changes
3 | N[C@@H](CS)C(=O)O [L-cysteine] | not resistant to heat treatment | – | – | –
